Laboratory results as given in US9057082B2, “Generation of methane from hydrocarbon bearing materials” (Transworld Technologies Inc., priority 2004, dated 2015).

Tested on: anaerobic microbial consortium or consortia indigenous to the coal
Test: Hydrogen gas accumulated in headspace of amended Dietz coal slurries
Conditions: approximately 134 days of incubation
Description: Core samples from the Tongue River area in the northwest portion of the Powder River Basin, Dietz coal seam, were utilized for these experiments. The core was collected in the field in a manner that prevented oxygen exposure by placing it into a steel canister that was purged with argon. Gas in the core used for the experiments described herein was extensively desorbed during long-term storage and previous use.
Coal samples were passed through a small jaw crusher twice resulting in pulverized coal (to yield a particle size similar to that of granulated sugar) that was measured into serum bottles (5 g per bottle); manipulations were carried out in an anaerobic environment. […]
Bromoethanesulfonic acid (BESA), a methanogen inhibitor, was added to selected incubations. […] Hydrogen production in the amended slurries relative to sterile coal slurries was measured to identify the degree of stimulation.
After approximately 134 days of incubation, all of the coal slurries were sampled for the aqueous phase (0.5 of 10 ml) and for gas analysis including hydrogen, methane, carbon dioxide, radioactive methane, and radioactive carbon dioxide. Methane and carbon dioxide were determined using a Hewlett Packard 5890 gas chromatograph equipped with a thermal conductivity detector. Radiolabeled methane and carbon dioxide were determined using a gas proportional counter (Innus Systems, Tampa, Fla.). […]

Bromoethanesulfonic acid [BESA]
hydrogen gas accumulation in the headspace, result in words: Hydrogen accumulated to the greatest extent
